Laboratory results as given in US10174339B2 (priority 2011, dated 2019).
“And” between values parts separate entries of the source, which are not always exact repeats. Equal entries are not always repeated. Where two headings read alike, the source gives them in different places. Ends that are not written are not given here.

Columns and labels:
[1] = tested on: Colletotrichum graminicola; type: cell-based; settings: 13 ppm
[2] = tested on: Asian soybean rust (Phakopsora pachirhizi); type: cell-based; settings: 10 ppm
[3] = tested on: Fusarium graminearum; type: cell-based; settings: for inhibition of growth of F. graminearum, more than NaD1: 0.825 ppm; for IC50: read-out: IC50 against Fusarium graminearum (Fgr)
[4] = tested on: Colletotrichum graminicola; test: Transgenic corn leaf sheath bioassay, lesion area, C. graminicola; settings: in vivo
[5] = tested on: Colletotrichum graminicola; type: cell-based
[6] = tested on: Fusarium graminearum; type: cell-based
[7] = tested on: Fusarium verticilloides; type: cell-based; settings: 3.25 ppm
[8] = tested on: Aspergillus niger; type: cell-based
[9] = tested on: C. neoformans (C2067); type: cell-based, Cryptococcus neoformans; settings: 6.5 ppm
[10] = tested on: Cryptococcus neoformans (C1065); type: cell-based; settings: 13 ppm
[11] = tested on: C. gattii; type: cell-based, Cryptococcus gattii
[12] = tested on: Fusarium graminearum; settings: in vivo

## HXP4: NaD2 Loop 1B (HRFKGP) in NaD1 backbone, SEQ ID NO:39 (RECKTESHRFKGPCITKPPCRKACISEKFTDGHCSKILRRCLCTKPC; ends and bridges not checked; cysteine pairing not given here)
[1]
  inhibition of growth of C. graminicola, more than NaD1: 61.3%
[2]; 24 hours
  inhibition of appresorium formation, more than NaD1: 65%
  inhibition of germination of Asian soybean rust, more than NaD1: 62%
[2]; 48 hours
  inhibition of formation of post-appresorium structures, more than NaD1: 59%
[3]
  inhibition of growth of F. graminearum, more than NaD1: 41.7%
[4]
  Percent inhibition relative of empty vector control (reduction in lesion area), Cgr: 26%
[5]
  synergy with protease inhibitors against Colletotrichum graminicola: synergistic with protease inhibitors
[6]
  synergistic effect with protease inhibitors against Fusarium graminearum: greater synergistic effect with protease inhibitors than NaD1
[7]
  inhibition of growth of F. verticilloides, more than NaD1: 40.9%
[8]; 13 ppm
  activity expressed as percent of NaD1, A. niger: greater than 112%
  inhibition of growth of A. niger, more than NaD1: 20.6%
[8]; 26 ppm
  inhibition of growth of A. niger, more than NaD1: at least 10%
[8]; 53 ppm
  inhibition of growth of A. niger, more than NaD1: at least 10%
[9]
  inhibition of growth of C. neoformans (C2067): more than 80%
[10]
  activity as percent of the activity of NaD1, C. neoformans (C1065): more than 596%
  inhibition of growth of Cryptococcus neoformans (C1065): completely inhibited
[11]; 6.5 ppm
  inhibition of growth of C. gatti, more than NaD1: 38%
[11]; 13 ppm
  inhibition of growth of C. gatti, more than NaD1: 10%

## HXP34: Zea2 Loop 1B (QHHSFP) in NaD1 backbone, SEQ ID NO:40 (RECKTESQHHSFPCITKPPCRKACISEKFTDGHCSKILRRCLCTKPC; ends and bridges not checked; cysteine pairing not given here)
[1]
  inhibition of growth of C. graminicola, more than NaD1: 21.8%
[3]
  inhibition of growth of F. graminearum, more than NaD1: 14.6%
[7]
  inhibition of growth of F. verticilloides, more than NaD1: 29.4%

## HXP35: PSD1 Loop 1B (DTYRGV) in NaD1 backbone, SEQ ID NO:41 (RECKTESDTYRGVCITKPPCRKACISEKFTDGHCSKILRRCLCTKPC; ends and bridges not checked; cysteine pairing not given here)
[1]
  inhibition of growth of C. graminicola, more than NaD1: 83.2%
[3]
  inhibition of growth of F. graminearum, more than NaD1: 34.5%
[7]
  inhibition of growth of F. verticilloides, more than NaD1: 5.1%

## HXP107: NaD2 Loop 1B in TPP3 backbone, SEQ ID NO:85 (QQICKAPSHRFKGPCFMDSSCRKYCIKEKFTGGHCSKLQRKCLCTKPC; Synthetic construct TPP3 backbone with NaD2 Loop 1B)
[3]
  IC50: 500 nM

## TPP3: Class II solanaceous defensin (Solanum lycopersicum), SEQ ID NO:5, parent protein of HXP107 (QQICKAPSQTFPGLCFMDSSCRKYCIKEKFTGGHCSKLQRKCLCTKPC; Synthetic construct Amino acid sequence of portion of TPP3 (Solanum lycopersicum) containing Loop 1B) [reference compound]
[3]
  IC50: 200 nM

B1: NaPin1A: Nicotiana alata type I proteinase inhibitor (protein)
chain: QSGCPGVTKERWPELLGTPAKFAMQIIQKENPKLTNVQTILNGRPVTEDLRCNRVRLFVNVLDFVVQTPQVG
modifications: Synthetic construct Amino acid sequence of NaPin1A
[5]
  Ee, expected effect from the additive response (Limpel's formula): 11.8 percent inhibition
  Io, percent inhibition observed: 69.3 percent inhibition

B2: CI-1B: barley type-I inhibitor, recombinant (protein)
chain: MRSMEGSVPKYPEPTEGSIGASGAKRSWPEVVGMSAEKAKEIILRDKPDAQIEVIPVDAMVPLDFNPNRIFILVAVARTPTVG
modifications: Synthetic construct Amino acid sequence of CI-1B
[6]
  Ee, expected effect from the additive response (Limpel's formula): 12.1 percent inhibition and 17.1 percent inhibition

B3: HXP4 + HvCPI6: barley cystatin HvCPI6 and modified defensin HXP4 co-expressed from one construct in corn, SEQ ID NO:83 (protein)
chain: MANKHLSLSLFLVLLGLSASLASGATSALGRRGVLLGGWSPVKDVNDPHVQELGGWAVAQHASLAKDGLLFRRVTRGEQQVVSGMNYRLFVVAADGSGKRVTYLAQIYEHWSRTRKLTSFKPAAGGEEKKNRECKTESNTFPGICITKPPCRKACISEKFTDGHCSKILRRCLCTKPCVFDEKMTKTGAEILAEEAKTLAAALLEEEIMDN
modifications: Synthetic construct Amino acid sequence of HvCPI6-L-HXP4-CTPP
[12]
  Percent inhibition relative of empty vector control (reduction in lesion area), Fgr: 45%
